According to ChEMBL document CHEMBL4190309, “Synthesis, antimicrobial, DNA cleavage and antioxidant activities of tricyclic sultams derived from saccharin” (Eur J Med Chem, 2017):
Values after ≈ are worked out from the molar mass of the structure shown. Active and inactive are the calls of the source. The rule behind the calls is not given here.

Tests used:
Priestia megaterium = test: Antibacterial activity against Bacillus megaterium ATCC 14591 assessed as diameter of inhibition zone at 100 uM after 24 hrs by cup diffusion method; format: functional; settings: ATCC 14591, 24 h, read-out: DIZ
[1] = Antioxidant activity assessed as ABTS radical scavenging activity at 2 uM by spectrophotometric analysis; format: functional
Staphylococcus aureus [2] = test: Antibacterial activity against Staphylococcus aureus ATCC 25923 after 24 hrs by serial dilution method; format: functional; settings: ATCC 25923, 24 h
[3] = Antioxidant activity assessed as superoxide anion scavenging activity at pH 8.3 by NBT/NADH/PMS assay; format: functional
DNA [4] = test: Induction of Escherichia coli DNA cleavage at 2 uM after 1 hr by […] staining-based agarose gel electrophoresis; format: nucleic-acid assay
Pseudomonas aeruginosa [5] = test: Antibacterial activity against Pseudomonas aeruginosa ATCC 27853 after 24 hrs by serial dilution method; format: functional; settings: ATCC 27853, 24 h
DNA [6] = test: Induction of Escherichia coli DNA cleavage after 1 hr by […] staining-based agarose gel electrophoresis; format: nucleic-acid assay
[7] = Antioxidant activity assessed as superoxide anion scavenging activity at 2 uM at pH 8.3 by NBT/NADH/PMS assay relative to control; format: functional
DNA [8] = test: Induction of Escherichia coli DNA cleavage at 8 uM after 1 hr by […] staining-based agarose gel electrophoresis; format: nucleic-acid assay
Escherichia coli [9] = test: Antibacterial activity against Escherichia coli ATCC 25922 after 24 hrs by serial dilution method; format: functional; settings: ATCC 25922, 24 h
DNA [10] = test: Induction of Escherichia coli DNA cleavage at 10 to 12 uM after 1 hr by […] staining-based agarose gel electrophoresis; format: nucleic-acid assay
[11] = Antiproliferative activity against hepatic cancer cells (unknown origin) at 50 uM by MTT assay relative to control; format: functional
Staphylococcus aureus [12] = test: Antibacterial activity against Staphylococcus aureus ATCC 25923 assessed as diameter of inhibition zone at 100 uM after 24 hrs by cup diffusion method; format: functional; settings: ATCC 25923, 24 h, read-out: DIZ
Pseudomonas aeruginosa [13] = test: Antibacterial activity against Pseudomonas aeruginosa ATCC 27853 assessed as diameter of inhibition zone at 100 uM after 24 hrs by cup diffusion method; format: functional; settings: ATCC 27853, 24 h, read-out: DIZ
Escherichia coli [14] = test: Antibacterial activity against Escherichia coli ATCC 25922 assessed as diameter of inhibition zone at 100 uM after 24 hrs by cup diffusion method; format: functional; settings: ATCC 25922, 24 h, read-out: DIZ
DNA [15] = test: Induction of Escherichia coli DNA cleavage at 4 uM after 1 hr by […] staining-based agarose gel electrophoresis; format: nucleic-acid assay
DNA [16] = test: Induction of Escherichia coli DNA cleavage at 6 uM after 1 hr by […] staining-based agarose gel electrophoresis; format: nucleic-acid assay

| SMILES | zone of inhibition at 100 µM (Priestia megaterium) [mm] | Activity [1] [%] | MIC (Staphylococcus aureus [2]) [µg/mL] | Activity [3] | IC50 [3] [µM] | Activity (DNA [4]) | MIC (Pseudomonas aeruginosa [5]) [µg/mL] | Activity (DNA [6]) | Activity [7] [%] | Activity (DNA [8]) | MIC (Escherichia coli [9]) [µg/mL] | Activity (DNA [10]) | Activity [11] [%] | zone of inhibition at 100 µM (Staphylococcus aureus [12]) [mm] | zone of inhibition at 100 µM (Pseudomonas aeruginosa [13]) [mm] | zone of inhibition at 100 µM (Escherichia coli [14]) [mm] | Activity (DNA [15]) | Activity (DNA [16]) |
| --- | --- | --- | --- | --- | --- | --- | --- | --- | --- | --- | --- | --- | --- | --- | --- | --- | --- | --- |
| CCOC(=O)C1=C2c3ccccc3S(=O)(=O)N2CC1 | 16 | 46.7 | 14 (≈ 50.1 µM) | Dose-dependent effect | 2.07 | inactive | 15 (≈ 53.7 µM) | Dose-dependent effect | 48.3 | Active | 18 (≈ 64.4 µM) | Active | 19.6 | 17 | 14 | 16 | – | – |
| O=C(Nc1ccc([N+](=O)[O-])cc1)C1=C2c3ccccc3S(=O)(=O)N2CC1 | 11 | 54.7 | 18 (≈ 48.5 µM) | Dose-dependent effect | 1.95 | inactive | 19 (≈ 51.2 µM) | Dose-dependent effect | 51.2 | Active | 24 (≈ 64.6 µM) | Active | 56.6 | 12 | 14 | 13 | – | – |
| CC1(C)S[C@@H]2[C@H](NC(=O)[C@H](N)c3ccccc3)C(=O)N2[C@H]1C(=O)O [AMPICILLIN] | 21 | – | – | – | – | – | – | – | – | – | – | – | – | 23 | 20 | 19 | – | – |
| Cc1ccccc1NC(=O)C1=C2c3ccccc3S(=O)(=O)N2CC1 | 20 | 62.5 | 12 (≈ 35.3 µM) | Dose-dependent effect | 1.62 | inactive | 17 (≈ 49.9 µM) | Dose-dependent effect | 61.7 | – | 11 (≈ 32.3 µM) | Active | 49.6 | 19 | 18 | 17 | Active | Active |
| CC(C)[C@@H]1CC[C@@H](C)C[C@H]1OC(=O)C1=C2c3ccccc3S(=O)(=O)N2CC1 | 18 | 60.3 | 24 (≈ 61.6 µM) | Dose-dependent effect | 1.71 | inactive | 25 (≈ 64.2 µM) | Dose-dependent effect | 58.6 | Active | 33 (≈ 84.7 µM) | Active | 70.2 | 19 | 18 | 17 | Active | Active |
| COC(=O)C1=C2c3ccccc3S(=O)(=O)N2CC1 | 19 | 63.8 | 15 (≈ 56.5 µM) | Dose-dependent effect | 1.68 | inactive | 14 (≈ 52.8 µM) | Dose-dependent effect | 59.4 | Active | 15 (≈ 56.5 µM) | Active | 36.6 | 20 | 16 | 17 | – | Active |
| O=C(Nc1ccccc1)C1=C2c3ccccc3S(=O)(=O)N2CC1 | 12 | 46.9 | 16 (≈ 49 µM) | Dose-dependent effect | 2.23 | inactive | 28 (≈ 85.8 µM) | Dose-dependent effect | 44.8 | – | 21 (≈ 64.3 µM) | Active | 58.6 | 14 | 12 | 13 | – | – |
| CC1(C)[C@H]2CC[C@]1(C)[C@H](OC(=O)C1=C3c4ccccc4S(=O)(=O)N3CC1)C2 | 17 | 62.7 | 18 (≈ 46.5 µM) | Dose-dependent effect | 1.66 | inactive | 27 (≈ 69.7 µM) | Dose-dependent effect | 60.1 | Active | 23 (≈ 59.4 µM) | Active | 63 | 18 | 14 | 16 | – | Active |
| O=C(OCCCl)C1=C2c3ccccc3S(=O)(=O)N2CC1 | 20 | 64.8 | 8 (≈ 25.5 µM) | Dose-dependent effect | 1.58 | inactive | 20 (≈ 63.7 µM) | Dose-dependent effect | 63.1 | Active | 21 (≈ 66.9 µM) | Active | 59.6 | 20 | 18 | 17 | Active | Active |
| CN[C@H](CC(C)C)C(=O)N[C@H]1C(=O)N[C@@H](CC(N)=O)C(=O)N[C@H]2C(=O)N[C@H]3C(=O)N[C@H](C(=O)N[C@H](C(=O)O)c4cc(O)cc(O)c4-c4cc3ccc4O)[C@H](O)c3ccc(c(Cl)c3)Oc3cc2cc(c3O[C@@H]2O[C@H](CO)[C@@H](O)[C@H](O)[C@H]2O[C@H]2C[C@](C)(N)[C@H](O)[C@H](C)O2)Oc2ccc(cc2Cl)[C@H]1O [VANCOMYCIN] | – | – | 14 (≈ 9.66 µM) | – | – | – | – | – | – | – | – | – | – | – | – | – | – | – |
| COc1ccc(NC(=O)C2=C3c4ccccc4S(=O)(=O)N3CC2)cc1 | 13 | 48.2 | 22 (≈ 61.7 µM) | Dose-dependent effect | 2.02 | inactive | 33 (≈ 92.6 µM) | Dose-dependent effect | 49.4 | Active | 22 (≈ 61.7 µM) | Active | 61 | 16 | 14 | 15 | – | – |
